According to paper PMC13233820, “Recruitment of Mre11 to recombination sites during meiosis” (Nature Communications, 2026):

Tests used:
[1] = test system: Mre11 condensates; assay type: biochemical, Saccharomyces cerevisiae; conditions: 5% 1,6-hexanediol, ten-minute treatment
Description: Experiments were performed without PEG. b, d Effect of DNase I, in the absence of PEG, on (b) Mre11 (n = 9 (no treatment) and 11 (DNase I)) and (d) MRX (n = 9 (no treatment) and 11 (DNase I)) condensates. Condensates were pre-assembled for 20 min with 5.7 nM pUC19 prior to challenge. Quantification represents total foci intensity (green) in a field of view and total number of foci per 1000 µm^2 (magenta). Foci intensity is normalized to the mean intensity of samples with DNA for (a, c) and untreated samples for (b, d). Error bars represent mean ± SD from the indicated (n) fields of view. e, f Effect of the presence of 5% PEG-3350 on (e) Mre11 (n = 12) and (f) MRX (n = 11) condensate formation. Quantification represents total foci intensity (green) in a field of view (normalized to the mean of + PEG images) and total number of foci per 1000 µm^2 (magenta). Error bars represent mean ± SD from the indicated (n) fields of view. g–j Effect of challenge with 5% 1,6-hexanediol and 0.5 M NaCl on (g, h) Mre11 and (i, j) MRX condensates. […] In the control reaction, an equivalent volume (1/20) of water was added instead of hexanediol. […]
(§1) Proteins were diluted to a 10 × stock of their appropriate working concentrations in their respective storage buffers. […] Images were analyzed with ImageJ using a custom-made script. […] Data were analyzed using Graphpad Prism 10.4.0.

[2] = test system: MRX condensates; assay type: biochemical, Saccharomyces cerevisiae; conditions: 5% 1,6-hexanediol, ten-minute treatment
Description: Experiments were performed without PEG. b, d Effect of DNase I, in the absence of PEG, on (b) Mre11 (n = 9 (no treatment) and 11 (DNase I)) and (d) MRX (n = 9 (no treatment) and 11 (DNase I)) condensates. Condensates were pre-assembled for 20 min with 5.7 nM pUC19 prior to challenge. Quantification represents total foci intensity (green) in a field of view and total number of foci per 1000 µm^2 (magenta). Foci intensity is normalized to the mean intensity of samples with DNA for (a, c) and untreated samples for (b, d). Error bars represent mean ± SD from the indicated (n) fields of view. e, f Effect of the presence of 5% PEG-3350 on (e) Mre11 (n = 12) and (f) MRX (n = 11) condensate formation. Quantification represents total foci intensity (green) in a field of view (normalized to the mean of + PEG images) and total number of foci per 1000 µm^2 (magenta). Error bars represent mean ± SD from the indicated (n) fields of view. g–j Effect of challenge with 5% 1,6-hexanediol and 0.5 M NaCl on (g, h) Mre11 and (i, j) MRX condensates. Condensates were assembled for 20 min prior to challenge and incubated for 15 min and 10 min, respectively, after challenge. […]
as §1

[3] = test system: MMS-induced Mre11^myc foci in vegetatively growing yeast; test: Immunofluorescence of MMS-induced Mre11myc foci, vegetative yeast nuclear spreads; assay type: cell-based, Saccharomyces cerevisiae
Description: (§2) Following standard protocols, strains were patched on YPG plates, mated and streaked on YPD plates, and selected diploid colonies grown in liquid YPD at 30 °C, 250 rpm, overnight. For meiotic synchronization, diploid cultures grown overnight in YPD were transferred to YPA (1% yeast extract, 2% peptone, 1% potassium acetate) at OD600 0.2 and grown for 12–14 h at 30 °C, 250 rpm. Once the cultures reached OD600 between 1.2–1.6, cells were washed once with prewarmed sterile water and immediately transferred to sporulation medium supplemented with amino acids (320 µL amino acid complementation media for 100 mL of sporulation media (SPM)) and were kept shaking at 30 °C, 250 rpm during the entire meiotic time-course. For MMS and CPT (Sigma) sensitivity assays, serial dilutions of overnight cultures were spotted on freshly prepared YPD-MMS or YPD-CPT plates containing the indicated percentage of MMS or CPT, respectively. Plates were grown for two days at 30 °C. For immunofluorescence of vegetatively growing cells, overnight cultures were refreshed by diluting to OD600 0.2 and grown for 3-4 hours to reach OD600 1.2–1.4 before subjecting to MMS or MMS followed by 5% 1,6-hexanediol treatment. For 5% 1,6-hexanediol treatment, cells were first converted to spheroplasts and then treated with 5% 1,6-hexanediol for 4-5 min. Spheroplasts were then immediately washed, lysed, and fixed using the protocol described below.
Meiotic cultures were harvested 4 h after transfer to SPM, washed with sterile cold water, and resuspended in 1 M sorbitol, 1 × PBS (pH 7), 10 mM DTT, 0.5 mg/ml zymolyase 20 T, and incubated for 30 mins at 30 °C with gentle shaking. […]
(§3) Slides were blocked with 90% FBS, 1 × PBS for 1 h at room temperature in a humid chamber and then incubated with primary antibody (mouse mAb anti-myc, 1:200 (2276S, Cell Signaling Technology), rabbit anti-phospho H2A-S129, 1:200 (ab15083, abcam)) diluted in 3% BSA, 1 × PBS in a humid chamber for 2 h at 37 °C or overnight at 4 °C. […] Images were captured on a Zeiss Axio Observer with a 100 ×/1.4 NA oil immersion objective and were analyzed in ImageJ.

[4] = test system: meiotic Mre11^myc foci; test: Immunofluorescence of meiotic Mre11myc foci, yeast nuclear spreads; assay type: cell-based, Saccharomyces cerevisiae; conditions: brief exposure to 1,6-hexanediol, prophase I spreads
Description: as §2, with “Plates were grown for two days at 30 °C. For immunofluorescence of vegetatively growing cells, overnight cultures were refreshed by diluting to OD600 0.2 and grown for 3-4 hours to reach OD600 1.2–1.4 before subjecting to MMS or MMS followed by 5% 1,6-hexanediol treatment. For 5% 1,6-hexanediol treatment, cells were first converted to spheroplasts and then treated with 5% 1,6-hexanediol for 4-5 min. Spheroplasts were then immediately washed, lysed, and fixed using the protocol described below.” left out
as §3

[5] = test system: Mer2 condensates; test: Colocalization of fluorescently-labeled Mer2 and Mre11 condensates; assay type: binding, Saccharomyces cerevisiae; conditions: 800 nM mScarlet-Mre11-C49 with 200 nM eGFP-Mer2, 30 min
Description: Fig. 4 Mer2 recruits Mre11 during meiosis. a Effect of 1,6-hexanediol treatment on meiotic Mre11^myc foci visualized by immunofluorescence analysis of yeast nuclear spreads 4 hours after transfer to SPM. […] At least 22 tetrads were dissected for each strain (n ≥ 88 spores). e Quantification of sub-population of cells showing discrete Mre11 foci and aggregated Mre11 foci in indicated strains. Images used for analysis were from the same experiments in (b) and (d). f Colocalization of fluorescently-labeled Mer2 with wild-type or truncated Mre11. […] The number of images analyzed for each sample were WT (n = 11), Mre11^Δ10-270 (n = 13), Mre11^Δ290-472 (n = 15), Mre11^ΔIDR (n = 10), Mre11^ΔC49 (n = 13). Error bars represent mean ± SD from the indicated (n) fields of view. p-values compared to Mre11-WT are: Mre11^Δ10-270 (0.006), Mre11^Δ290-472 (0.0003), Mre11^ΔIDR (<0.0001), Mre11^ΔC49 (<0.0001). g Colocalization of fluorescently-labeled Mre11-C49 and Mer2. Condensates were assembled by mixing 800 nM of ^mScarletMre11-C49 and 200 nM of ^eGFPMer2 for 30 min prior to imaging. […]
Proteins were diluted to a 10 × stock of their appropriate working concentrations in their respective storage buffers. […] Images were analyzed with ImageJ using a custom-made script. […] Masked foci were counted, and the intensity inside the focus mask was integrated. […] Data were analyzed using Graphpad Prism 10.4.0.

[6] = test system: HisSUMO-Mer2 (wild type); test: Co-expression pull-down assay (NiNTA, anti-MBP immunoblot); assay type: binding, Saccharomyces cerevisiae; conditions: co-expressed in E. coli
Description: Wild-type and mutant MBP-tagged Mre11-C49 and HisSUMO-tagged Mer2 were co-expressed in 50 mL of E. coli BL21 cultures and purified by affinity chromatography on Ni-NTA resin following a procedure similar to that described above. Briefly, cells were lysed by sonication and centrifuged at maximum speed for 30 mins at 4 °C on a table-top centrifuge. A small fraction of the supernatant was collected as ‘Input’ and the remainder was incubated with 120 µL Ni-NTA resin, pre-equilibrated with wash buffer (25 mM HEPES pH 7.5, 20 mM imidazole, 0.1 mM DTT, 0.1 mM PMSF, 10% glycerol), for 1 hour on a rotating wheel at 4 °C. The resin was washed twice with 2 ml in batch and five times with 2 ml on column before eluting with 250 µL of 500 mM imidazole in wash buffer. Input and elution fractions were separated by SDS-PAGE followed by immunoblotting with primary murine anti-MBP monoclonal antibody at 1:10,000 dilution (E8032S, NEB) and secondary goat anti-mouse IgG-HRP conjugated at 1:10,000 dilution (AP308P, Chemicon).

[7] = test system: Mer2; test: Yeast two-hybrid; assay type: binding, Saccharomyces cerevisiae; conditions: SC-Leu-Ura-His + 25 mM 3-AT
Description: Bait and prey plasmids were co-transformed into yWL365 using the standard ‘LiAc’-based transformation and plated on SC-Leu-Ura selective media. At least four independent transformants were tested for Mer2-Mre11 interaction by spotting a dilution series on SC-Leu- Ura-His + 25 mM 3-AT (3-amino-1,2,4-triazole) and growing for 4-5 days at 30 °C.

[8] = test system: Mer2 coiled-coil; test: ITC Mre11-C49 / Mer2 coiled-coil; assay type: binding, Saccharomyces cerevisiae; conditions: Mre11-C49 titrated into Mer2 coiled-coil; peer review file

Compound	Effect on Mre11 foci intensity (in words) [1]	Effect on MRX foci intensity (in words) [2]	Effect on MMS-induced Mre11 foci (in words) ([3]; 5% 1,6-hexanediol, 4-5 min)	Percentage of aggregates ([3]; MMS + 5% 1,6-hexanediol 4-5 min)	Effect on meiotic Mre11 foci (in words) [4]	Localization around Mer2 condensates (in words) [5]	Interaction with Mer2 in pulldown (in words) [6]	Yeast two-hybrid interaction with Mer2 (in words) [7]	ITC result [8]
OCCCCCCO [1,6-hexanediol]	strong reduction in foci intensity	strong reduction in foci intensity	readily dissolved MMS-induced foci	100	disassembles these foci				
SYGLLNGRKTKTKTRSAASTKTASRRGKGRASRTPKTDILGSLLAKKRK [Mre11-C49, Mre11 C-terminal residues 644–692]						forms a halo-like structure around Mer2 condensates	directly binds Mer2	not sufficient for Mer2 binding	inconclusive
